Source: patent US10213391B2, “Pharmaceutical compositions comprising hemp and turmeric to treat pain and inflammation” (priority 2014, dated 2019)

Tests used:
[1] = tested on: Chronic constriction injury (CCI) in mice; conditions: p.o., twice per day for three weeks, cited from earlier work
pain = assay: 7 volunteer pain relief study; assay type: in vivo, human; conditions: for Relief: single agent: Curcumin 30 mg or Hemp CBD 20 mg, formulations contain magnesium
Text: All of the above formulations contain magnesium. Patients received the combination of CBD and curcumin in the following formulation comprising: (a) hemp derived terpiniods and oil; (b) turmeric as curcumin and; (c) magnesium.

[2] = chronic, but not acute, treatment 5, 15 or 45 mg/kg

For `COc1cc(/C=C/C(=O)CC(=O)/C=C/c2ccc(O)c(OC)c2)ccc1O` [Curcumin, curcumin], the “spinal monoamine (or metabolite) contents” value ([1]; chronic treatment 5, 15 or 45 mg/kg) is given as “increasing”, the “mechanical allodynia (von Frey hair)” value [1, 2] is given as “alleviated” and the “thermal hyperalgesia (hot plate test)” value [1, 2] is given as “alleviated”. The Relief (pain; Subject 1, (California), joint pain) was “Partial relief”, the Relief (pain; Subject 2, (California), migraine) was “Partial relief” and the Relief (pain; Subject 4, (Colorado), back pain) was “Partial relief”. The Relief (pain; Subject 5, (California), back pain) was “Partial relief” and the pain relief (pain; summary of the 7 volunteer study, patients taking the agents singly) was “partial pain relief”.
